The values below are quoted from earlier work in patent US20040018260A1, “Novel botanical extract of Tripterygium Wilfordii Hook F” (Novemed Group Limited, priority 2002, published 2004).

Entries after “also recorded” stand apart in the source; their conditions may differ.

The conditions of data set [1]: in vitro and animal experiments; results called inconclusive.
For data set [2] the following is noted: in vitro and animal experiments; results called inconclusive. The source holds these as a separate data set.
The conditions of data set [3]: reported.

For `CC(C)[C@]12O[C@H]1[C@@H]1O[C@@]13[C@@]1(C)CCC4=C(COC4=O)[C@@H]1C[C@@H]1O[C@@]13C2=O` [T7, Triptonide], the immunosuppressive activity result in data set [1] was “relatively low activities”. In addition, in data set [2], the anti-inflammatory activity result was “relatively low activities”.
For `CC(C)[C@]12O[C@H]1[C@@H]1O[C@]13[C@]1(O[C@H]1C[C@H]1C4=C(CC[C@@]13C)C(=O)OC4)[C@@H]2O` [T10, triptolide], in data set [1], the immunosuppressive activity entry was “most abundant and active compound”. In data set [3], the carcinogenic or mutagenic entry is “potently carcinogenic or mutagenic; also recorded: carcinogenic”. Moreover, in data set [2], the anti-inflammatory activity entry was “most abundant and active compound”.
On to `CC(C)[C@]1(O)[C@H](O)[C@@H]2O[C@]23[C@]2(O[C@H]2C[C@H]2C4=C(CC[C@@]23C)C(=O)OC4)[C@@H]1O` [T11, tripriolide], for which, in data set [1], the immunosuppressive activity entry was “little immunosuppressive activity”. The anti-inflammatory activity result in data set [2] is reported as “highest anti-inflammatory activity”.
